Source: patent EP0562832A1, “Indole and indazole derivatives, for the treatment and prophylaxis of cerebral disorders, their preparation and their use” (priority 1992, dated 1993)
Where a name gives a salt, the structure may show the parent alone.

Target: T1, acetylcholinesterase (Mus musculus, UniProt P21836)
T1 construct: The mouse brain was homogenised by means of a 5-fold amount of a 100 mM phosphate buffer (pH 8.0) to prepare an enzyme sample; from tissue; host or cells: brain of male ddY mice, 5 to 7 weeks old (Japan SLC)
T1 sequence (P21836 32-614): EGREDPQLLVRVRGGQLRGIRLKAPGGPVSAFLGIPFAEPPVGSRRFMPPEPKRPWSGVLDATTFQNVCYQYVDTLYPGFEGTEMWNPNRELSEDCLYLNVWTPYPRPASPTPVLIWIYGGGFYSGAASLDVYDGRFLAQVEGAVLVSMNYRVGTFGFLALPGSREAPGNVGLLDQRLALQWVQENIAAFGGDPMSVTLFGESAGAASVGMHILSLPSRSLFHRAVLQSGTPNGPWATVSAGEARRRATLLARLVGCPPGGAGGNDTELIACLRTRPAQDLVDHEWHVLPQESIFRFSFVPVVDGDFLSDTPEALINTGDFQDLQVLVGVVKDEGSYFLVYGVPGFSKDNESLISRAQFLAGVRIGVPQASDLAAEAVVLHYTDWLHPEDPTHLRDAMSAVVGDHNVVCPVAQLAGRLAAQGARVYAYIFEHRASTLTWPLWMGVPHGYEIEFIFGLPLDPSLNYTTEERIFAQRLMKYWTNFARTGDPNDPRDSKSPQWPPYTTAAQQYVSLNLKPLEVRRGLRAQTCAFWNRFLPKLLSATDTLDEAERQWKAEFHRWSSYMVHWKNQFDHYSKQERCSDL
Test: Assay of acetylcholinesterase inhibitory activity (Elman's method, mouse brain homogenate)
Format: biochemical

| SMILES | IC50 [nM] |
| --- | --- |
| Cc1ccc2c(c1)c(C(=O)CCC1CCN(Cc3ccccc3)CC1)nn2C [2-8] | 13 |
| Cn1cc(C(=O)CCC2CCN(Cc3cccc(F)c3)CC2)c2cc(F)ccc21 [Compound No. 1-313, 1-Methyl-3-{3-[1-(3-fluorobenzyl)-4-piperidyl]propionyl}-5-fluoroindole] | 2 |
| Cn1nc(C(=O)CCC2CCN(Cc3ccccc3Cl)CC2)c2ccccc21 [Compound No. 2-96, 1-Methyl-3-{3-[1-(2-chlorobenzyl)-4-piperidyl]propionyl}indazole hydrochloride] | 13.9 |
| Cn1cc(C(=O)CCC2CCN(Cc3cccs3)CC2)c2ccccc21 [Compound No. 1-116, 1-Methyl-3-{3-[1-(2-thienylmethyl)-4-piperidyl]propionyl}indole] | 10 |
| Cn1cc(C(=O)CCC2CCN(Cc3ccccc3)CC2)c2ccccc21 [Compound No. 1-2, 1-Methyl-3-[3-(1-benzyl-4-piperidyl)propionyl]indole] | 3.3 |
| Cn1cc(C(=O)CCC2CCN(Cc3cccc(F)c3)CC2)c2ccccc21 [Compound No. 1-78, 1-Methyl-3-{3-[1-(3-fluorobenzyl)-4-piperidyl]propionyl}indole] | 8 |
| Cn1cc(C(=O)CCC2CCN(Cc3ccccc3)CC2)c2ccccc21 [Compound No. 1-4, 1-Methyl-3-[3-(1-benzyl-4-piperidyl)propionyl]indole oxalate] | 10 |
| Cc1ccc2c(C(=O)C=CC3CCN(Cc4ccccc4)CC3)nn(C)c2c1 [Compound No. 2-9] | 14 |
| Cn1cc(C(=O)CCC2CCN(Cc3cccc(F)c3)CC2)c2cc(F)ccc21 [Compound No. 1-314, 1-Methyl-3-{3-[1-(3-fluorobenzyl)-4-piperidyl]propionyl}-5-fluoroindole hydrochloride] | 3.4 |
| Cn1nc(C(=O)CCC2CCN(Cc3cccc(Cl)c3)CC2)c2ccccc21 [Compound No. 2-99, 1-Methyl-3-{3-[1-(3-chlorobenzyl)-4-piperidyl]-propionyl}indazole hydrochloride] | 31.7 |
| Cn1cc(C(=O)CCC2CCN(Cc3cccc(F)c3)CC2)c2cc(F)ccc21 [1-315, 1-Methyl-3-{3-[1-(3-fluorobenzyl)-4-piperidyl]propionyl}-5-fluoroindole oxalate] | 2.3 |
| Cn1nc(C(=O)CCC2CCN(Cc3ccccc3)CC2)c2c(Cl)cccc21 [2-24] | 10 |
| Cn1cc(C(=O)CCC2CCN(Cc3cccc(Cl)c3)CC2)c2ccccc21 [Compound No. 1-85, 1-Methyl-3-{3-[1-(3-chlorobenzyl)-4-piperidyl]propionyl}indole hydrochloride] | 6.5 |
| Cn1cc(C(=O)CCC2CCN(Cc3cccc(F)c3)CC2)c2cc(Cl)ccc21 [Compound No. 1-309, 1-Methyl-3-{3-[1-(3-fluorobenzyl)-4-piperidyl]propionyl}-5-chloroindole] | 8.2 |
| Cn1nc(C(=O)C=CC2CCN(Cc3ccccc3)CC2)c2c(Cl)cccc21 [2-23] | 11 |
| Cn1cc(C(=O)CCC2CCN(Cc3cccc(Cl)c3)CC2)c2cc(Cl)ccc21 [Compound No. 1-304, 1-Methyl-3-{3-[1-(3-chlorobenzyl)-4-piperidyl]propionyl}-5-chloroindole hydrochloride] | 7.5 |
| Cn1cc(C(=O)CCC2CCN(Cc3ccccc3)CC2)c2cc(F)ccc21 [Compound No. 1-40, 1-Methyl-3-[3-(1-benzyl-4-piperidyl)propionyl]-5-fluoroindole] | 4 |
| Cn1cc(C(=O)CCC2CCN(Cc3ccccc3)CC2)c2ccc(Cl)cc21 [Compound No. 1-30, 1-Methyl-3-[3-(1-benzyl-4-piperidyl)propionyl]-6-chloroindole] | 9 |
| CCc1ccc2c(C(=O)CCC3CCN(Cc4ccccc4)CC3)cn(C)c2c1 [1-16] | 4 |
| Cn1nc(C(=O)CCC2CCN(Cc3ccccc3)CC2)c2ccccc21 [Compound No. 2-3, 1-Methyl-3-[3-(1-benzyl-4-piperidyl)propionyl]indazole hydrochloride] | 12 |
| Cn1nc(C(=O)CCC2CCN(Cc3ccccc3)CC2)c2ccccc21 [Compound No. 2-2, 1-Methyl-3-[3-(1-benzyl-4-piperidyl)propionyl]indazole] | 10 |
| Cn1cc(C(=O)CCC2CCN(Cc3ccccc3)CC2)c2cc(Cl)ccc21 [Compound No. 1-28, 1-Methyl-3-[3-(1-benzyl-4-piperidyl)propionyl]-5-chloroindole] | 4 |
